Experimental data from patent US20160376240A1, “6 Phenyl or 6 Pyridin 3 YL Indazole Derivatives and Methods of Use” (ABBVIE INC., priority 2014, published 2016).

target: T1, TrkA (Homo sapiens, UniProt P04629); test: TrkA kinase inhibition, HTRF assay; type: biochemical; settings: LCK peptide substrate 125 nM, TrkA 2-10 nM pre-incubated with ATP 200 μM
T1 construct: purchased Invitrogen PV3144
Procedure, shortened: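 TrkA (2-10 nM) preactivated 20 min with 200 μM ATP in HEPES pH 7.4 with Mg2+/Mn2+, then compound for 10 min, then 125 nM biotinylated LCK-peptide for 1 h at ambient temperature. HTRF 665/620 ratio read; IC50 fitted from initial-rate percent inhibition.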

T1 sequence (P04629 33-796): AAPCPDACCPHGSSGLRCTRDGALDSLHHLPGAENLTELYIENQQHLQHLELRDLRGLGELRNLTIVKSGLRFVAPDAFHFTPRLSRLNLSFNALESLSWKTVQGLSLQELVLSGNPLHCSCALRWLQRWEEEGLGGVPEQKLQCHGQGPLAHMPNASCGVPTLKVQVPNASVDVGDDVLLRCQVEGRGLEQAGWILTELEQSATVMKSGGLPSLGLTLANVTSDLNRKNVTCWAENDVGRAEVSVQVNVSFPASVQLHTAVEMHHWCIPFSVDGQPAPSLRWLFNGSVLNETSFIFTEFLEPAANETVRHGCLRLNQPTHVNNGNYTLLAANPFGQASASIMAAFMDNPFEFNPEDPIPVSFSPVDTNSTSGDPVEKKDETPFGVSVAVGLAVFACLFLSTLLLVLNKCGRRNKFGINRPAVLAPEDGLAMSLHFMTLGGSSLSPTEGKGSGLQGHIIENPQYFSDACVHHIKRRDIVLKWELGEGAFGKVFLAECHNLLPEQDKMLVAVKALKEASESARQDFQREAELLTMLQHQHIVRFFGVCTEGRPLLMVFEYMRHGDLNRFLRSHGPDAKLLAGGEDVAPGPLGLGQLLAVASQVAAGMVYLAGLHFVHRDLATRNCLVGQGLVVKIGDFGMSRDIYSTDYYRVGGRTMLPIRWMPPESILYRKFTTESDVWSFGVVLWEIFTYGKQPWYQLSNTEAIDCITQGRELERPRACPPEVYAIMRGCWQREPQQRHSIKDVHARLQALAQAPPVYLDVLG

| SMILES | IC50 [µM] |
| --- | --- |
| CC(Oc1cc(-c2ccc(C(N)=O)c(N3C[C@H]4CN(Cc5ccccc5)C[C@H]4C3)c2)cc2[nH]nc(N)c12)C(F)(F)F (stereo partly drawn) [Example 99, 4-{3-amino-4-[(1,1,1-trifluoropropan-2-yl)oxy]-1H-indazol-6-yl}-2-[(3aR*,6aS*)-5-benzylhexahydropyrrolo[3,4-c]pyrrol-2(1H)-yl]benzamide] | 0.852 |
| NC(=O)c1ccc(-c2cc(OC3CCCC3)c3c(N)n[nH]c3c2)cc1N1CCC(C(N)=O)CC1 [Example 79, 1-{5-[3-amino-4-(cyclopentyloxy)-1H-indazol-6-yl]-2-carbamoylphenyl}piperidine-4-carboxamide] | 0.221 |
| NC(=O)c1ccc(-c2ccc3c(N)n[nH]c3c2)cc1N1CCN(C2CCCCC2)CC1 [Example 85, 4-(3-amino-1H-indazol-6-yl)-2-(4-cyclohexylpiperazin-1-yl)benzamide] | 2.24 |
| CNC(=O)c1ccc(-c2cc(OC(C)C(F)(F)F)c3c(N)n[nH]c3c2)cc1N1CCN(CCN2CCOCC2)CC1 (stereo not shown) [Example 37, 4-{3-amino-4-[(1,1,1-trifluoropropan-2-yl)oxy]-1H-indazol-6-yl}-N-methyl-2-{4-[2-(morpholin-4-yl)ethyl]piperazin-1-yl}benzamide] | 0.667 |
| CNC(=O)c1ccc(-c2cc(O[C@H](C)C(F)(F)F)c3c(N)n[nH]c3c2)cc1N1CCN(c2ncccn2)CC1 [Example 52, 4-(3-amino-4-{[(2R)-1,1,1-trifluoropropan-2-yl]oxy}-1H-indazol-6-yl)-N-methyl-2-[4-(pyrimidin-2-yl)piperazin-1-yl]benzamide] | 0.0272 |
| CC(Oc1cc(-c2ccc(C(N)=O)c(N3CCN(c4ccccn4)CC3)c2)cc2[nH]nc(N)c12)C(F)(F)F (stereo not shown) [Example 94, 4-{3-amino-4-[(1,1,1-trifluoropropan-2-yl)oxy]-1H-indazol-6-yl}-2-[4-(pyridin-2-yl)piperazin-1-yl]benzamide] | 0.00241 |
| NC(=O)c1ccc(-c2cc(OC3CCCC3)c3c(N)n[nH]c3c2)cc1N1CCC(c2ccccc2)CC1 [Example 76, 4-[3-amino-4-(cyclopentyloxy)-1H-indazol-6-yl]-2-(4-phenylpiperidin-1-yl)benzamide] | 0.0245 |
| CN1CCC(Oc2cc(-c3ccc(C(=O)NC4CC4)c(N4CCN(c5ccccc5)CC4)c3)cc3[nH]nc(N)c23)CC1 [Example 62, 4-{3-amino-4-[(1-methylpiperidin-4-yl)oxy]-1H-indazol-6-yl}-N-cyclopropyl-2-(4-phenylpiperazin-1-yl)benzamide] | 0.0671 |
| NC(=O)c1ccc(-c2ccc3c(N)n[nH]c3c2)cc1N1CCN(CC(=O)N2CCCC2)CC1 [Example 83, 4-(3-amino-1H-indazol-6-yl)-2-{4-[2-oxo-2-(pyrrolidin-1-yl)ethyl]piperazin-1-yl}benzamide] | 8.33 |
| CNC(=O)c1ccc(-c2cc(O[C@H](C)C(F)(F)F)c3c(N)n[nH]c3c2)cc1N1CCN(CCC(C)(C)C)CC1 [Example 51, 4-(3-amino-4-{[(2R)-1,1,1-trifluoropropan-2-yl]oxy}-1H-indazol-6-yl)-2-[4-(3,3-dimethylbutyl)piperazin-1-yl]-N-methylbenzamide] | 0.0754 |
| CNC(=O)c1ccc(-c2cc(OC(C)C(F)(F)F)c3c(N)n[nH]c3c2)cc1N1CCN(c2cccnc2)CC1 (stereo not shown) [Example 36, 4-{3-amino-4-[(1,1,1-trifluoropropan-2-yl)oxy]-1H-indazol-6-yl}-N-methyl-2-[4-(pyridin-3-yl)piperazin-1-yl]benzamide] | 0.0258 |
| NC(=O)c1ccc(-c2ccc3c(N)n[nH]c3c2)cc1N1CCN(c2ccccn2)CC1 [Example 86, 4-(3-amino-1H-indazol-6-yl)-2-[4-(pyridin-2-yl)piperazin-1-yl]benzamide] | 0.0161 |
| NC(=O)c1ccc(-c2cc(OC3CCNCC3)c3c(N)n[nH]c3c2)cc1N1CCN(c2ccccc2)CC1 [Example 63, 4-[3-amino-4-(piperidin-4-yloxy)-1H-indazol-6-yl]-2-(4-phenylpiperazin-1-yl)benzamide] | 0.0253 |

Next, values leading:

| IC50 [µM] | SMILES |
| --- | --- |
| 0.00711 | CNC(=O)c1ccc(-c2cc(OC3CCOCC3)c3c(N)n[nH]c3c2)cc1N1CCNCC1 [Example 112, 4-[3-amino-4-(tetrahydro-2H-pyran-4-yloxy)-1H-indazol-6-yl]-N-methyl-2-(piperazin-1-yl)benzamide] |
| 0.0251 | CNC(=O)c1ccc(-c2cc(OC3CCOCC3)c3c(C)n[nH]c3c2)cc1N1CCN(C(=O)OCCOC)CC1 [Example 138, 2-methoxyethyl 4-{2-(methylcarbamoyl)-5-[3-methyl-4-(tetrahydro-2H-pyran-4-yloxy)-1H-indazol-6-yl]phenyl}piperazine-1-carboxylate] |
| 0.0328 | CCNC(=O)c1ccc(-c2cc(OC3CCOCC3)c3c(C)n[nH]c3c2)cc1N1CCN(c2ccccc2)CC1 [Example 115, N-ethyl-4-[3-methyl-4-(tetrahydro-2H-pyran-4-yloxy)-1H-indazol-6-yl]-2-(4-phenylpiperazin-1-yl)benzamide] |
| 0.53 | CNC(=O)c1ccc(-c2cc(O[C@H](C)C(F)(F)F)c3c(N)n[nH]c3c2)cc1N1CCN(C2CCC2)CC1 [Example 50, 4-(3-amino-4-{[(2R)-1,1,1-trifluoropropan-2-yl]oxy}-1H-indazol-6-yl)-2-(4-cyclobutylpiperazin-1-yl)-N-methylbenzamide] |
| 0.00375 | CNC(=O)c1ccc(-c2cc(OC3CCOCC3)c3c(C)n[nH]c3c2)cc1N1CCN(Cc2cccnc2)CC1 [Example 123, N-methyl-4-[3-methyl-4-(tetrahydro-2H-pyran-4-yloxy)-1H-indazol-6-yl]-2-[4-(pyridin-3-ylmethyl)piperazin-1-yl]benzamide] |
| 0.00377 | CC(=O)Nc1ccc(-c2cc(OC3CCOCC3)c3c(C)n[nH]c3c2)cc1N1CCN(C(=O)OC(C)(C)C)CC1 [Example 141, tert-butyl 4-{2-acetamido-5-[3-methyl-4-(tetrahydro-2H-pyran-4-yloxy)-1H-indazol-6-yl]phenyl}piperazine-1-carboxylate] |
| 0.0469 | C=CC(=O)Nc1ccc(-c2cc(OC3CCOCC3)c3c(C)n[nH]c3c2)cc1N1CCN(C2CCCCC2)CC1 [Example 131, N-{2-(4-cyclohexylpiperazin-1-yl)-4-[3-methyl-4-(tetrahydro-2H-pyran-4-yloxy)-1H-indazol-6-yl]phenyl}acrylamide] |
| 0.00814 | CNC(=O)c1ccc(-c2cc(OC3CCOCC3)c3c(C)n[nH]c3c2)cc1N1CCN(C(=O)OC(C)(C)C)CC1 [Example 122, tert-butyl 4-{2-(methylcarbamoyl)-5-[3-methyl-4-(tetrahydro-2H-pyran-4-yloxy)-1H-indazol-6-yl]phenyl}piperazine-1-carboxylate] |
| 0.0958 | CNC(=O)c1ccc(-c2cc(OC3CCOCC3)c3c(C)n[nH]c3c2)cc1N1CCN(CC(F)(F)F)CC1 [Example 143, N-methyl-4-[3-methyl-4-(tetrahydro-2H-pyran-4-yloxy)-1H-indazol-6-yl]-2-[4-(2,2,2-trifluoroethyl)piperazin-1-yl]benzamide] |
| 0.376 | CNC(=O)c1ccc(-c2cc(OC3CCOCC3)c3c(N)n[nH]c3c2)cc1N1CCN(C(=O)C2CC2)CC1 [Example 32, 4-[3-amino-4-(tetrahydro-2H-pyran-4-yloxy)-1H-indazol-6-yl]-2-[4-(cyclopropylcarbonyl)piperazin-1-yl]-N-methylbenzamide] |
| 0.0346 | CC(=O)Nc1ccc(-c2cc(OC3CCOCC3)c3c(C)n[nH]c3c2)cc1N1CCN(Cc2cccnc2)CC1 [Example 148, N-{4-[3-methyl-4-(tetrahydro-2H-pyran-4-yloxy)-1H-indazol-6-yl]-2-[4-(pyridin-3-ylmethyl)piperazin-1-yl]phenyl}acetamide] |
| 0.0281 | Cc1n[nH]c2cc(-c3ccc(NS(C)(=O)=O)c(N4CCN(C(=O)OC(C)(C)C)CC4)c3)cc(OC3CCOCC3)c12 [Example 162, tert-butyl 4-{2-[(methylsulfonyl)amino]-5-[3-methyl-4-(tetrahydro-2H-pyran-4-yloxy)-1H-indazol-6-yl]phenyl}piperazine-1-carboxylate] |
| 0.0737 | Cc1n[nH]c2cc(-c3cncc(N4CCN(c5ccccc5)CC4)c3)cc(OC3CCCC3)c12 [Example 161, 4-(cyclopentyloxy)-3-methyl-6-[5-(4-phenylpiperazin-1-yl)pyridin-3-yl]-1H-indazole] |
| 0.00686 | Cc1n[nH]c2cc(-c3ccc(C#N)c(N4CCN(C(=O)OC(C)(C)C)CC4)c3)cc(OC3CCOCC3)c12 [Example 139, tert-butyl 4-{2-cyano-5-[3-methyl-4-(tetrahydro-2H-pyran-4-yloxy)-1H-indazol-6-yl]phenyl}piperazine-1-carboxylate] |
| 0.0311 | CC(=O)Nc1ccc(-c2cc(OC3CCOCC3)c3c(C)n[nH]c3c2)cc1N1CCN(C2CCCCC2)CC1 [Example 119, N-{2-(4-cyclohexylpiperazin-1-yl)-4-[3-methyl-4-(tetrahydro-2H-pyran-4-yloxy)-1H-indazol-6-yl]phenyl}acetamide] |
| 0.3 | CNC(=O)c1ccc(-c2cc(O[C@@H](C)C(F)(F)F)c3c(N)n[nH]c3c2)cc1N1CCN(C(=O)C(C)(C)C)CC1 [Example 45, 4-(3-amino-4-{[(2S)-1,1,1-trifluoropropan-2-yl]oxy}-1H-indazol-6-yl)-2-[4-(2,2-dimethylpropanoyl)piperazin-1-yl]-N-methylbenzamide] |
| 0.0421 | CNC(=O)c1ccc(-c2cc(OC3CCOCC3)c3c(N)n[nH]c3c2)cc1N1CCN(c2cccnc2)CC1 [Example 31, 4-[3-amino-4-(tetrahydro-2H-pyran-4-yloxy)-1H-indazol-6-yl]-N-methyl-2-[4-(pyridin-3-yl)piperazin-1-yl]benzamide] |
| 0.0593 | CNC(=O)c1ccc(-c2cc(OC3CCOCC3)c3c(C)n[nH]c3c2)cc1N1CCN(C(=O)CC(C)C)CC1 [Example 160, N-methyl-2-[4-(3-methylbutanoyl)piperazin-1-yl]-4-[3-methyl-4-(tetrahydro-2H-pyran-4-yloxy)-1H-indazol-6-yl]benzamide] |
